Data taken from patent publication US10851102B2, “Imidazole and triazole containing bicyclic compounds as JAK inhibitors” (THERAVANCE BIOPHARMA R&D IP, LLC, priority 2019, dated 2020).

Experiments:
JAK3 = JAK3 (Homo sapiens (Human), UniProt P52333); experiment: Biochemical JAK and Tyk2 kinase assays (LanthaScreen): JAK3; details: for JAK 3 (pKi) / Ki: 1 h pre-incubation, ATP at Km, pIC50 converted to pKi by Cheng-Prusoff; for JAK3 (pKi)-JAK1 (pKi): difference of pKi values, selectivity JAK3 over JAK1; for Ki: read-out: JAK 3 (pKi) (converted)
JAK3, sequence (P52333 whole entry): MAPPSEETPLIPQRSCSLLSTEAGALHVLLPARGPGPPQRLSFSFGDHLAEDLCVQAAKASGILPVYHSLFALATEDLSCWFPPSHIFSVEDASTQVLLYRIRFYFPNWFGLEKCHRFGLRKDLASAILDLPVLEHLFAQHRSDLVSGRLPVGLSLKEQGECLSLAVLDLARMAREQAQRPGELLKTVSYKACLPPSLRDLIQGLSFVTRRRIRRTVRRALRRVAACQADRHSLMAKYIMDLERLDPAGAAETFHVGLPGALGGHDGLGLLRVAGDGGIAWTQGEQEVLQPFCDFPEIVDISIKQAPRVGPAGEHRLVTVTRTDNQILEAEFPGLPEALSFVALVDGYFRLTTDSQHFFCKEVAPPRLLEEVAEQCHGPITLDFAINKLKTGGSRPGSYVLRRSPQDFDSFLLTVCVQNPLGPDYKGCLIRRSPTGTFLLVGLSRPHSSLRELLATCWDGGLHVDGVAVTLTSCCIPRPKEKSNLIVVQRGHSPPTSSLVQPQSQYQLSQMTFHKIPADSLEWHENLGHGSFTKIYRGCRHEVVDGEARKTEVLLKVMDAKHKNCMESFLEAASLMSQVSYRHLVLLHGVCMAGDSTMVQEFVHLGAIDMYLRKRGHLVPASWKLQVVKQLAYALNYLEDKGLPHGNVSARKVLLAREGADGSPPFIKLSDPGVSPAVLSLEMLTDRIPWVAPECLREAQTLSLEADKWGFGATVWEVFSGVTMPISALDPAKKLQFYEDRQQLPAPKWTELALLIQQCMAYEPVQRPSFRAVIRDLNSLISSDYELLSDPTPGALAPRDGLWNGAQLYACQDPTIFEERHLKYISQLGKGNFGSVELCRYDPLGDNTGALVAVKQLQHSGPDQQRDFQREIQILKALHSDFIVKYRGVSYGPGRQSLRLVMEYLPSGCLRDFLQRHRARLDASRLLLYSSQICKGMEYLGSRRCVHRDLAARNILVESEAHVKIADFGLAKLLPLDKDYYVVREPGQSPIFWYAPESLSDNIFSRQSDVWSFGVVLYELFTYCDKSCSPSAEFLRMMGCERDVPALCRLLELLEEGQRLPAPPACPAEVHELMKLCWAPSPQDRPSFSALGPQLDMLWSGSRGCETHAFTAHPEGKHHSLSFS
Protocol: (§1) Assay 1: Biochemical JAK and Tyk2 Kinase Assays
(§2) A panel of four LanthaScreen JAK biochemical assays (JAK1, 2, 3 and Tyk2) were carried in a common kinase reaction buffer (50 mM HEPES, pH 7.5, 0.01% Brij-35, 10 mM MgCl2, and 1 mM EGTA). Recombinant GST-tagged JAK enzymes and a GFP-tagged STAT1 peptide substrate were obtained from Life Technologies.
(§3) Serially or discretely diluted compounds were pre-incubated with each of the four JAK enzymes and the substrate in white 384-well microplates (Corning) at ambient temperature for 1 h. ATP was subsequently added to initiate the kinase reactions in 10 μL total volume, with 1% DMSO. […] Kinase reactions were allowed to proceed for 1 hour at ambient temperature before a 10 μL preparation of EDTA (10 mM final concentration) and Tb-anti-pSTAT1 (pTyr701) antibody (Life Technologies, 2 nM final concentration) in TR-FRET dilution buffer (Life Technologies) was added. The plates were allowed to incubate at ambient temperature for 1 h before being read on the EnVision reader (Perkin Elmer). Emission ratio signals (520 nm/495 nm) were recorded and utilized to calculate the percent inhibition values based on DMSO and background controls.
(§4) For dose-response analysis, percent inhibition data were plotted vs. compound concentrations, and IC50 values were determined from a 4-parameter robust fit model with the Prism software (GraphPad Software). Results were expressed as pIC50 (negative logarithm of IC50) and subsequently converted to pKi (negative logarithm of dissociation constant, Ki) using the Cheng-Prusoff equation.

JAK1 = JAK1 (Homo sapiens (Human), UniProt P23458); experiment: Biochemical JAK and Tyk2 kinase assays (LanthaScreen): JAK1; details: 1 h pre-incubation, ATP at Km; pIC50 converted to pKi by Cheng-Prusoff
JAK1, sequence (P23458 whole entry): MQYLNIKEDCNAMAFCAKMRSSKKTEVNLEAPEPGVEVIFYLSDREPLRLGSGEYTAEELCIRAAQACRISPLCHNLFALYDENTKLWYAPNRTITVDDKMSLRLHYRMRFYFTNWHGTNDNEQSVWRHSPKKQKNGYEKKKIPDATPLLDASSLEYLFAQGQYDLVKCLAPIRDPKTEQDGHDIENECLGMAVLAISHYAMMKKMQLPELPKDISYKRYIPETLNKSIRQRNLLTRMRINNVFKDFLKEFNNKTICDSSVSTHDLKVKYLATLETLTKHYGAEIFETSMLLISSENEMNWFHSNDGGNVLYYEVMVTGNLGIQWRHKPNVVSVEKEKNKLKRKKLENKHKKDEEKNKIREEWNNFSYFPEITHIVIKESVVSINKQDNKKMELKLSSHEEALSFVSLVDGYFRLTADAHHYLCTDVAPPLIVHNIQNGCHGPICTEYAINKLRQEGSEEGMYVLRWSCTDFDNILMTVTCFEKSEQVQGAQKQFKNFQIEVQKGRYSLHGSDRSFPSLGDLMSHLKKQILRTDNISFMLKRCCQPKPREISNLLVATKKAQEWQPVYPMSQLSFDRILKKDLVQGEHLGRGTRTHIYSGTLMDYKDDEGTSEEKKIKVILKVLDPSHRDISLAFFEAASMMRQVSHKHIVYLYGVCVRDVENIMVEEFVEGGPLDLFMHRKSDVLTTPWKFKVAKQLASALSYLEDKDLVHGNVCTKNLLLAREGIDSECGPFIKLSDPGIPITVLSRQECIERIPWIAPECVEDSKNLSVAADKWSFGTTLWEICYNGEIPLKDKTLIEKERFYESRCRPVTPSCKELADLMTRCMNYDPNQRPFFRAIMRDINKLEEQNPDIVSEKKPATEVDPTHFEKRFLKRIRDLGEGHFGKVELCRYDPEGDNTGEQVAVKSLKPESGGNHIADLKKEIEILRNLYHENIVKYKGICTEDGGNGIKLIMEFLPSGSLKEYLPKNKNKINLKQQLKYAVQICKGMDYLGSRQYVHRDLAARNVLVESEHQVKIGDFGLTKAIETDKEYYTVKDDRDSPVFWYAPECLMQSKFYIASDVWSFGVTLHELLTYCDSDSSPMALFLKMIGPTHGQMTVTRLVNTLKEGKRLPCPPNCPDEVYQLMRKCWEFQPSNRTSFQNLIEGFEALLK
Protocol: as §1, §2, §3, §4

[1] = tested on: IL-2 stimulated pSTAT5 in Tall-1 T cells (JAK3); experiment: Cellular JAK3 potency assay: inhibition of IL-2 stimulated pSTAT5 in Tall-1 T cells; format: cell-based; details: IL-2 300 ng/ml, pSTAT5 AlphaLisa, Tall-1 human T cell line; read-out: Tall-1 (pIC50) (converted)
Protocol: Assay 2: Cellular JAK3 Potency Assay: Inhibition of IL-2 Stimulated pSTAT5 in Tall-1 T Cells
The potency of test compounds for inhibition of interleukin-2 (IL-2) stimulated STATS phosphorylation was measured in the Tall-1 human T cell line (DSMZ) using AlphaLisa. Because IL-2 signals through JAK3, this assay provides a measure of JAK3 cellular potency.
Phosphorylated STATS was measured via the AlphaLISA SureFire Ultra pSTAT5 (Tyr694/699) kit (PerkinElmer).
Human T cells from the Tall-1 cell line were cultured in a 37° C., 5% CO2 humidified incubator in RPMI (Life Technologies) supplemented with 15% Heat Inactivated Fetal Bovine Serum (FBS, Life Technologies), 2 mM Glutamax (Life Technologies), 25 mM HEPES (Life Technologies) and 1× Pen/Strep (Life Technologies). Compounds were serially diluted in DMSO and dispensed acoustically to empty wells. Assay media (phenol red-free DMEM (Life Technologies) supplemented with 10% FBS (ATCC)) was dispensed (4 μL/well) and plates shaken at 900 rpm for 10 mins. Cells were seeded at 45,000 cells/well in assay media (4 μL/well), and incubated at 37° C., 5% CO2 for 1 hour, followed by the addition of IL-2 (R&D Systems; final concentration 300 ng/ml) in pre-warmed assay media ([…]) for 30 minutes. After cytokine stimulation, cells were lysed with 6 ul of 3× AlphaLisa Lysis Buffer (PerkinElmer) containing 1× PhosStop and Complete tablets (Roche). The lysate was shaken at 900 rpm for 10 minutes at room temperature (RT). Phosphorylated STATS was measured via the pSTAT5 AlphaLisa kit (PerkinElmer). Freshly prepared acceptor bead mixture was dispensed onto lysate (5 μL) under green filtered <100 lux light. Plates were shaken at 900 rpm for 2 mins, briefly spun down, and incubated for 2 hrs at RT in the dark. Donor beads were dispensed (5 μL) under green filtered <100 lux light. Plates were shaken at 900 rpm for 2 minutes, briefly spun down, and incubated overnight at RT in the dark. Luminescence was measured with excitation at 689 nm and emission at 570 nm using an EnVision plate reader (PerkinElmer) under green filtered <100 lux light.
To determine the inhibitory potency of test compounds in response to IL-2, the average emission intensity of beads bound to pSTAT5 was measured in a human T cell line. IC50 values were determined from analysis of the inhibition curves of signal intensity versus compound concentration. Data are expressed as pIC50 (negative decadic logarithm IC50) values (mean±standard deviation).

| SMILES | JAK 3 (pKi) (JAK3) | JAK3 (pKi)-JAK1 (pKi) (JAK3) | JAK 1 (pKi) (JAK1) | IC50 [1] | Ki (JAK3) |
| --- | --- | --- | --- | --- | --- |
| C=CC(=O)N1CC(COc2cc(-c3ccc(O)cc3)cn3cnnc23)C1 [Example 5, 1-(3-(((6-(4-hydroxyphenyl)-[1,2,4]triazolo[4,3-a]pyridin-8-yl)oxy)methyl)azetidin-1-yl)prop-2-en-1-one] | A (A represents a pKi value≥10 (Ki≤0.1 nM)) | A (A represents a value of 3 or above) | E (E represents a pKi value of 7 or below (Ki of 100 nM or above)) | 200 to 1000 nM | – |
| C=CC(=O)N1[C@@H]2CC[C@H]1C[C@H](Oc1cc(-c3ccc(O)cc3)cn3cncc13)C2 [Example 10, 1-((1R,3S,5S)-3-((6-(4-hydroxyphenyl)imidazo[1,5-a]pyridin-8-yl)oxy)-8-azabicyclo[3.2.1]octan-8-yl)prop-2-en-1-one] | – | – | – | 31.6 to 200 nM | – |
| C=CC(=O)N1CCC(N(C)c2cc(-c3ccc(O)cc3)cn3cncc23)CC1 [Example 17] | C (C represents a pKi value between 8 and 9 (Ki between 10 nM and 1 nM)) | B (B represents a value of 2.3 to 3) | E (E represents a pKi value of 7 or below (Ki of 100 nM or above)) | – | – |
| CCc1cc(O)c(F)cc1-c1cc(O[C@H]2CCCN(C(=O)/C=C/CN(C)C)C2)c2cncn2c1 [Example 18] | – | B (B represents a value of 2.3 to 3) | E (E represents a pKi value of 7 or below (Ki of 100 nM or above)) | – | 0.1 to 1 nM |
| CN(C)C/C=C/C(=O)N1CC(COc2cc(-c3ccc(O)cc3)cn3cncc23)C1 [Example 19] | – | A (A represents a value of 3 or above) | E (E represents a pKi value of 7 or below (Ki of 100 nM or above)) | 200 to 1000 nM | 0.1 to 1 nM |
| CN(C)C/C=C/C(=O)N1CC(COc2cc(-c3ccc(O)c(F)c3)cn3cncc23)C1 [Example 22] | – | A (A represents a value of 3 or above) | E (E represents a pKi value of 7 or below (Ki of 100 nM or above)) | 200 to 1000 nM | 0.1 to 1 nM |
| CCc1cc(O)ccc1-c1cc(OCC2CN(C(=O)/C=C/CN(C)C)C2)c2cncn2c1 [Example 25] | – | A (A represents a value of 3 or above) | E (E represents a pKi value of 7 or below (Ki of 100 nM or above)) | 200 to 1000 nM | 0.1 to 1 nM |
| C=CC(=O)N1CC(CSc2cc(-c3ccc(O)cc3)cn3cncc23)C1 [Example 29] | – | A (A represents a value of 3 or above) | E (E represents a pKi value of 7 or below (Ki of 100 nM or above)) | 200 to 1000 nM | 0.1 to 1 nM |
| C=CC(=O)N1CC(COc2cc(-c3cc(F)c(O)c(F)c3)cn3cncc23)C1 [Example 32] | – | A (A represents a value of 3 or above) | E (E represents a pKi value of 7 or below (Ki of 100 nM or above)) | 200 to 1000 nM | 0.1 to 1 nM |
| C=CC(=O)N1CC(COc2cc(-c3cc(C)c(O)c(C)c3)cn3cncc23)C1 [Example 35] | – | A (A represents a value of 3 or above) | E (E represents a pKi value of 7 or below (Ki of 100 nM or above)) | 200 to 1000 nM | 0.1 to 1 nM |
| C=CC(=O)N1[C@@H]2CC[C@H]1C[C@@H](Oc1cc(-c3ccc(O)cc3)cn3cncc13)C2 [Example 36] | A (A represents a pKi value≥10 (Ki≤0.1 nM)) | A (A represents a value of 3 or above) | E (E represents a pKi value of 7 or below (Ki of 100 nM or above)) | 31.6 to 200 nM | – |
| C=CC(=O)N1CC[C@H](Oc2cc(-c3ccc(O)cc3)cn3cncc23)C[C@@H]1C [Example 38] | – | A (A represents a value of 3 or above) | E (E represents a pKi value of 7 or below (Ki of 100 nM or above)) | 31.6 to 200 nM | 0.1 to 1 nM |
| C=CC(=O)N1[C@H](C)C[C@H](Oc2cc(-c3ccc(O)cc3)cn3cncc23)C[C@@H]1C [Example 40] | – | B (B represents a value of 2.3 to 3) | E (E represents a pKi value of 7 or below (Ki of 100 nM or above)) | 200 to 1000 nM | 1 to 10 nM |
| C=CC(=O)N1CC(COc2cc(-c3ccc(O)cc3C(F)(F)F)cn3cncc23)C1 [Example 42] | – | A (A represents a value of 3 or above) | E (E represents a pKi value of 7 or below (Ki of 100 nM or above)) | 200 to 1000 nM | 0.1 to 1 nM |
| C=CC(=O)N1CC(COc2cc(-c3cc(C)c(O)cc3C)cn3cncc23)C1 [Example 43] | – | A (A represents a value of 3 or above) | E (E represents a pKi value of 7 or below (Ki of 100 nM or above)) | 31.6 to 200 nM | 0.1 to 1 nM |
| C=CC(=O)N1CC(COc2cc(-c3ccc(O)cc3OC)cn3cncc23)C1 [Example 45] | – | A (A represents a value of 3 or above) | E (E represents a pKi value of 7 or below (Ki of 100 nM or above)) | 200 to 1000 nM | 0.1 to 1 nM |
| C=CC(=O)N1CC2(CCC2Oc2cc(-c3cc(F)c(O)cc3CC)cn3cncc23)C1 (stereo not drawn) [Example 46] | – | B (B represents a value of 2.3 to 3) | E (E represents a pKi value of 7 or below (Ki of 100 nM or above)) | 31.6 to 200 nM | 0.1 to 1 nM |
| C=CC(=O)N1[C@@H]2CC[C@H]1C[C@H](Nc1cc(-c3ccc(O)cc3)cn3cncc13)C2 [Example 50] | – | B (B represents a value of 2.3 to 3) | E (E represents a pKi value of 7 or below (Ki of 100 nM or above)) | – | 1 to 10 nM |
| C=CC(=O)N1CCC[C@H](Nc2cc(-c3ccc(O)cc3)cn3cncc23)C1 [Example 51] | – | B (B represents a value of 2.3 to 3) | E (E represents a pKi value of 7 or below (Ki of 100 nM or above)) | – | 1 to 10 nM |
| C=CC(=O)N1CC(CNc2cc(-c3ccc(O)cc3)cn3cncc23)C1 [Example 52] | – | B (B represents a value of 2.3 to 3) | E (E represents a pKi value of 7 or below (Ki of 100 nM or above)) | – | 1 to 10 nM |
